SMILES strings stand for the structures. Structures can show the parent of a compound that is named as a salt.

`COc1cccc(-c2cccc3c2OC(CN)CO3)c1OC` (stereo not shown) (as salt: fumarate) [Compound I-9, {[8-(2,3-Dimethoxyphenyl)-2,3-dihydro-1,4-benzodioxin-2-yl]methyl}amine]: the melting point fell in the range of 198 to 199 °C.
As to `Cc1cccc(-c2cccc3c2OC(CN)CO3)c1C` (stereo not shown) (as salt: fumarate) [Compound I-10, {[8-(2,3-Dimethylphenyl)-2,3-dihydro-1,4-benzodioxin-2-yl]methyl}amine], the melting point is 204 to 205 °C.
As for `Cc1ccc(C)c(-c2cccc3c2OC(CN)CO3)c1` (stereo not shown) (as salt: fumarate) [Compound I-11, {[8-(2,5-Dimethylphenyl)-2,3-dihydro-1,4-benzodioxin-2-yl]methyl}amine], the figure is 199 to 200 °C.
With `Cc1cccc(C)c1-c1cccc2c1OC(CN)CO2` (stereo not shown) (as salt: fumarate) [Compound I-12, {[8-(2,6-Dimethylphenyl)-2,3-dihydro-1,4-benzodioxin-2-yl]methyl}amine] the figure was 205 to 206 °C; with `NCC1COc2cccc(-c3cccc(F)c3F)c2O1` (stereo not shown) (as salt: fumarate) [Compound I-13, {[8-(2,3-Difluorophenyl)-2,3-dihydro-1,4-benzodioxin-2-yl]methyl}amine], 189 to 190 °C; with `NCC1COc2cccc(-c3ccc(F)cc3F)c2O1` (stereo not shown) (as salt: fumarate) [Compound I-14, {[8-(2,4-Difluorophenyl)-2,3-dihydro-1,4-benzodioxin-2-yl]methyl}amine], 183 to 184 °C.
The compound `NCC1COc2cccc(-c3cc(F)ccc3F)c2O1` (stereo not shown) (as salt: fumarate) [Compound I-15, {[8-(2,5-Difluorophenyl)-2,3-dihydro-1,4-benzodioxin-2-yl]methyl}amine] registered a melting point of 189 to 190 °C.
With `COc1ccc(Cl)cc1-c1cccc2c1OC(CN)CO2` (stereo not shown) (as salt: fumarate) [Compound I-16, {[8-(5-Chloro-2-methoxyphenyl)-2,3-dihydro-1,4-benzodioxin-2-yl]methyl}amine] the figure was 192 to 193 °C.
The compound `CNCC1COc2cccc(-c3ccccc3C)c2O1` (stereo not shown) (as salt: fumarate) [Compound I-17, N-Methyl-N-{[8-(2-methylphenyl)-2,3-dihydro-1,4-benzodioxin-2-yl]methyl}amine] displayed a melting point of 177 to 178 °C.
With `CNCC1COc2cccc(-c3ccccc3F)c2O1` (stereo not shown) (as salt: fumarate) [Compound I-18, {[8-(2-Fluorophenyl)-2,3-dihydro-1,4-benzodioxin-2-yl]methyl}methylamine] the figure was 191 to 192 °C.
Consider `CNCC1COc2cccc(-c3ccccc3OC)c2O1` (stereo not shown) (as salt: fumarate) [Compound I-19, {[8-(2-Methoxyphenyl)-2,3-dihydro-1,4-benzodioxin-2-yl]methyl}methylamine], for which the melting point was 168 to 169 °C.
As for `CNCC1COc2cccc(-c3ccccc3C(F)(F)F)c2O1` (stereo not shown) (as salt: fumarate) [Compound I-20, N-Methyl-1-{8-[2-(trifluoromethyl)phenyl]-2,3-dihydro-1,4-benzodioxin-2-yl}methanamine], the figure is 184 to 185 °C; as for `CNCC1COc2cccc(-c3ccccc3Cl)c2O1` (stereo not shown) (as salt: fumarate) [Compound I-21, {[8-(2-Chlorophenyl)-2,3-dihydro-1,4-benzodioxin-2-yl]methyl}methylamine], 174 to 175 °C.
In turn, `CNCC1COc2cccc(-c3cccc(Cl)c3Cl)c2O1` (stereo not shown) (as salt: fumarate) [Compound I-22, {[8-(2,3-Dichlorophenyl)-2,3-dihydro-1,4-benzodioxin-2-yl]methyl}methylamine] registered a melting point of 184 to 185 °C.
With `CNCC1COc2cccc(-c3cccc(C)c3C)c2O1` (stereo not shown) (as salt: fumarate) [Compound I-25, {[8-(2,3-Dimethylphenyl)-2,3-dihydro-1,4-benzodioxin-2-yl]methyl}methylamine] the figure was 194 to 195 °C; with `CNCC1COc2cccc(-c3cc(C)ccc3C)c2O1` (stereo not shown) (as salt: fumarate) [Compound I-26, {[8-(2,5-Dimethylphenyl)-2,3-dihydro-1,4-benzodioxin-2-yl]methyl}methylamine], 174 to 175 °C; with `CNCC1COc2cccc(-c3cccc(F)c3F)c2O1` (stereo not shown) (as salt: fumarate) [Compound I-27, {[8-(2,3-Difluorophenyl)-2,3-dihydro-1,4-benzodioxin-2-yl]methyl}methylamine], 181 to 182 °C.
With `CNCC1COc2cccc(-c3ccc(F)cc3F)c2O1` (stereo not shown) (as salt: fumarate) [Compound I-28, {[8-(2,4-Difluorophenyl)-2,3-dihydro-1,4-benzodioxin-2-yl]methyl}methylamine] the figure was 174 to 175 °C; with `CNCC1COc2cccc(-c3cc(F)ccc3F)c2O1` (stereo not shown) (as salt: fumarate) [Compound I-29, {[8-(2,5-Difluorophenyl)-2,3-dihydro-1,4-benzodioxin-2-yl]methyl}methylamine], 193 to 194 °C.
`CNCC1COc2cccc(-c3cccc(OC)c3OC)c2O1` (stereo not shown) (as salt: fumarate) [Compound I-30, {[8-(2,3-Dimethoxyphenyl)-2,3-dihydro-1,4-benzodioxin-2-yl]methyl}methylamine] returned a melting point of 159 to 160 °C.
As for `CNCC1COc2cccc(-c3cc(Cl)ccc3OC)c2O1` (stereo not shown) (as salt: fumarate) [Compound I-31, {[8-(5-Chloro-2-methoxyphenyl)-2,3-dihydro-1,4-benzodioxin-2-yl]methyl}methylamine], the figure is 172 to 173 °C.
`CCNCC1COc2cccc(-c3ccc(Cl)cc3Cl)c2O1` (stereo not shown) (as salt: fumarate) [Compound I-33, N-{[8-(2,4-Dichlorophenyl)-2,3-dihydro-1,4-benzodioxin-2-yl]methyl}ethanamine] displayed a melting point of 179 to 180 °C.
With `CCCNCC1COc2cccc(-c3ccc(Cl)cc3Cl)c2O1` (stereo not shown) (as salt: fumarate) [Compound I-35, N-{[8-(2,4-Dichlorophenyl)-2,3-dihydro-1,4-benzodioxin-2-yl]methyl}propan-1-amine], the melting point fell in the range of 178 to 179 °C.
With `CC(C)NCC1COc2cccc(-c3ccccc3Cl)c2O1` (stereo not shown) (as salt: fumarate) [Compound I-36, N-{[8-(2-Chlorophenyl)-2,3-dihydro-1,4-benzodioxin-2-yl]methyl}propan-2-amine] the figure was 199 to 200 °C.
In turn, `CC(C)NCC1COc2cccc(-c3ccc(Cl)cc3Cl)c2O1` (stereo not shown) (as salt: fumarate) [Compound I-37, N-{[8-(2,4-Dichlorophenyl)-2,3-dihydro-1,4-benzodioxin-2-yl]methyl}propan-2-amine] displayed a melting point of 222 to 223 °C.
For the compound `CN(C)CC1COc2cccc(-c3ccccc3Cl)c2O1` (stereo not shown) (as salt: fumarate) [Compound I-38, {[8-(2-Chlorophenyl)-2,3-dihydro-1,4-benzodioxin-2-yl]methyl}dimethylamine], the melting point was in the range of 196 to 197 °C.
With `CN(C)CC1COc2cccc(-c3ccc(Cl)cc3Cl)c2O1` (stereo not shown) (as salt: fumarate) [Compound I-39, {[8-(2,4-Dichlorophenyl)-2,3-dihydro-1,4-benzodioxin-2-yl]methyl}dimethylamine] the figure was 232 to 233 °C; with `C=CCNCC1COc2cccc(-c3ccc(Cl)cc3Cl)c2O1` (stereo not shown) (as salt: fumarate) [Compound I-40, N-{[8-(2,4-Dichlorophenyl)-2,3-dihydro-1,4-benzodioxin-2-yl]methyl}prop-2-en-1-amine], 167 to 168 °C.
Regarding `Clc1ccccc1-c1cccc2c1OC(CNCC1CC1)CO2` (stereo not shown) (as salt: fumarate) [Compound I-41, {[8-(2-Chlorophenyl)-2,3-dihydro-1,4-benzodioxin-2-yl]methyl}(cyclopropylmethyl)-amine], the melting point fell in the range of 138 to 140 °C.
The compound `Clc1ccc(-c2cccc3c2OC(CNCC2CC2)CO3)c(Cl)c1` (stereo not shown) (as salt: fumarate) [Compound I-42, (Cyclopropylmethyl) {[8-(2,4-dichlorophenyl)-2,3-dihydro-1,4-benzodioxin-2-yl]methyl}amine] came in with a melting point of 155 to 156 °C.
With `Clc1ccccc1-c1cccc2c1OC(CNC1CC1)CO2` (stereo not shown) (as salt: fumarate) [Compound I-43, N-{[8-(2-Chlorophenyl)-2,3-dihydro-1,4-benzodioxin-2yl]methyl}cyclopropanamine] the figure was 148 to 149 °C.
With `Clc1ccc(-c2cccc3c2OC(CNC2CC2)CO3)c(Cl)c1` (stereo not shown) (as salt: fumarate) [Compound I-44, N-{[8-(2,4-Dichlorophenyl)-2,3-dihydro-1,4-benzodioxin-2-yl]methyl}cyclopropanamine] the figure was 181 to 182 °C; with `Clc1ccc(-c2cccc3c2OC(CNC2CCC2)CO3)c(Cl)c1` (stereo not shown) (as salt: fumarate) [Compound I-45, N-{[8-(2,4-Dichlorophenyl)-2,3-dihydro-1,4-benzodioxin-2-yl]methyl}cyclobutanamine], 204 to 205 °C.
`C[C@]1(CN)COc2cccc(-c3ccccc3)c2O1` (as salt: fumarate) [Compound I-48, {[(2S)-2-Methyl-8-phenyl-2,3-dihydro-1,4-benzodioxin-2-yl]methyl}amine] yielded a melting point of 130 to 133 °C.
With `C[C@]1(CN)COc2cccc(-c3ccccc3Cl)c2O1` (as salt: fumarate) [Compound I-49, {[(2S)-8-(2-Chlorophenyl)-2-methyl-2,3-dihydro-1,4-benzodioxin-2-yl]methyl}amine] the figure was 149 to 152 °C; with `C[C@]1(CN)COc2cccc(-c3cccc(Cl)c3)c2O1` (as salt: fumarate) [Compound I-50, {[(2S)-8-(3-Chlorophenyl)-2-methyl-2,3-dihydro-1,4-benzodioxin-2-yl]methyl}amine], 110 to 113 °C; with `C[C@]1(CN)COc2cccc(-c3ccc(Cl)cc3)c2O1` (as salt: fumarate) [Compound I-51, {[(2S)-8-(4-Chlorophenyl)-2-methyl-2,3-dihydro-1,4-benzodioxin-2-yl]methyl}amine], 155 to 158 °C.

By melting point is commonly meant the temperature of the solid-liquid transition.

For the origin of these results see patent publication US20060241172A1, “Benzodioxane and benzodioxolane derivatives and uses thereof” (Wyeth, priority 2005, published 2006).
